From patent publication US7309698B2, “Compositions for delivering bisphosphonates” (Emisphere Technologies, Inc., priority 2001, dated 2007)
Where “and” joins values, the source holds several entries; their conditions need not be identical. Equal values may be shown once.

Experiments:
[1] = Solubility of delivery agent compound; format: physicochemical; conditions: 350 µl 2N NaOH + 650 µl water, aqueous buffer, thermodynamic from solid; 200 mg+350 μl 2N NaOH+650 μl H2O, pH=7.67
Method: The reaction mixture was warmed to 25° C. and stirred for 64 hours. The volatiles were removed in vacuo. The residue was stirred in 2N aqueous sodium hydroxide for one hour and acidified with 2M aqueous sulfuric acid. The solid was recrystallized twice from ethanol/water to give a tan solid. Isolation by filtration afforded 53.05 g of (52% yield) of 2-(4-(N-salicyloyl) aminophenyl) propionic acid. Solubility: 200 mg/mL (200 mg+350 μl 2N NaOH+650 μl H2O, pH=7.67). Anal. Calculated: C=67.36, H=5.3, N=4.91. Found: C=67.05, H=5.25, N=4.72.
A solution of 53.05 g (0.186 mol) of 2-(4-(N-salicyloyl)aminophenyl) propionic acid and 300 mL of ethanol was treated with 7.59 g (0.190 mol) of NaOH dissolved in 22 mL of water. The reaction mixture was stirred for 30 minutes at 25° C. and for 30 minutes at 0° C. The resulting pale yellow solid was isolated by filtration to give 52.61 g of sodium 2-(4-(N-salicyloyl) aminophenyl) propionate. Solubility: 200 mg/mL clear solution, pH=6.85. Anal. Calculated: C=60.45, H=5.45, N=3.92, Na=6.43. Found: C=60.84, H=5.87, N=3.85, Na=6.43. Melting point 236-238° C.

Compound	melting point	solubility [1]
CC(C(=O)[O-])c1ccc(NC(=O)c2ccccc2O)cc1.[Na+] (stereo not drawn) [Compound 4 Sodium Salt, Sodium 2-(4-(N-salicyloyl)aminophenyl)propionate]	236 to 238 °C	–
CC(C(=O)O)c1ccc(NC(=O)c2ccccc2O)cc1 (stereo not drawn) [Compound 4, 2-(4-(N-salicyloyl)aminophenyl)propionic acid]	–	200 mg/mL
O=C(O)CCCCCCCOc1ccccc1O [Compound 7, 8-(2-Hydroxyphenoxy)octanoic acid]	65 to 68 °C and 60 to 64 °C	–
